Laboratory results from paper PMC7730851, “Expression of Somatostatin Receptor Subtypes (SSTR-1–SSTR-5) in Pediatric Hematological and Oncological Disorders” (Molecules, 2020).
Entries after “also recorded” stand apart in the source; their conditions may differ. Like-named read-outs stand apart in the source and are kept apart here. Blank lines part the entries; values can stand above or below the compound they belong to. Positions of bridges follow the written chain, without caps; N, C: chain ends. Non-standard residues stand in square brackets, D forms with d. Residues, ends and D or L forms follow the SMILES beside them.

What was measured:
[1] = tested on: SSTR-3; settings: cited from earlier work
[2] = tested on: SSTR-1; settings: cited from earlier work
[3] = tested on: SSTR-5; settings: cited from earlier work
[4] = tested on: SSTR-2; settings: cited from earlier work
[5] = tested on: somatostatin receptors (SSTR); assay: Displacement of [125I]RC-160 binding from membranes of human pediatric tumors by unlabeled peptides; settings: for displacement of [125I]RC-160 binding: membrane fractions of human rhabdomyosarcoma specimen, Figure 3; for inhibition/displacement of the binding of radioiodinated RC-160: pediatric tumor membranes, competitor 10^-12-10^-6 M, concentrations as high as 1 µM
Description: (§1) Receptor binding affinities and concentrations of SSTRs in tumor membranes were also studied. […] Biochemical specifications and parameters crucial to characterize specific binding sites were also defined. […] Various peptides structurally related or unrelated to SST were used in these studies.
Displacement of [^125I] RC-160 as a radioligand by the unlabeled SST analogs as competitor was determined.
(§2) The radioiodinated derivatives of the RC-160 SST analogue were prepared by the chloramine-T method and purified by reverse phase high-performance liquid chromatography (RP-HPLC) as described previously. Somatostatin receptor-binding assays were performed as described previously with some minor modifications, using in vitro ligand competition assays based on the binding of [^125I] RC-160 as a radioligand to membrane fractions of the pediatric samples. This radioiodinated ligand has been well characterized and reported previously and has high affinity for SSTR-2 and SSTR-5 [4]. Tumor membrane homogenates were incubated as competitors with 50,000–70,000 cpm radioiodinated RC-160 and 10^−12–10^−6 M nonradioactive peptides. After incubation for 2 h, the binding reactions were stopped, and the bound ligand was separated and counted in a gamma counter. The LIGAND-PC computer curve-fitting software of Munson and Rodbard was used to determine the type of receptor binding, the dissociation constant (Kd), and the maximal binding capacity of SSTRs (Bmax). […] The final binding affinities were expressed as IC50 values. Protein concentration was determined by the method of Bradford using a Bio-Rad protein assay kit (Bio-Rad Laboratories, Inc.).

[6] = molecular target: somatostatin receptors (SSTR); assay: Ligand competition assay: binding of [125I]RC-160 to membrane homogenates of pediatric solid tumor samples (Scatchard / LIGAND-PC); parameters: species or system human
Description: as §1, §2

Compound: octreotide
affinity to SSTR-3 [1]: approximately similar affinity
affinity to SSTR-1 [2]: lower binding affinity
affinity to SSTR-5 [3]: high affinity; also recorded: approximately similar affinity
affinity to SSTR-2 [4]: high affinity; also recorded: highest affinity

displacement of [125I]RC-160 binding [5]: did not displace
inhibition/displacement of the binding of radioiodinated RC-160 [5]: none
Compound: luteinizing hormone-releasing hormone (LHRH): unrelated peptide used as specificity control

displacement of [125I]RC-160 binding [5]: did not displace
Compound: bombesin

displacement of [125I]RC-160 binding [5]: did not displace
inhibition/displacement of the binding of radioiodinated RC-160 [5]: none
Compound: growth hormone-releasing hormone (GHRH): unrelated peptide used as specificity control

Compound: pasireotide
affinity to SSTR-3 [1]: possesses an affinity
affinity to SSTR-1 [2]: possesses an affinity
affinity to SSTR-5 [3]: possesses an affinity

Compound: SST-14: somatostatin-14, native peptide
inhibition/displacement of the binding of radioiodinated RC-160 [5]: displaced completely

Kd ([6]; mean of seven receptor-positive pediatric tumor samples, read-out: mean dissociation constant (Kd)): 6 nM
Kd ([6]; patient 4, Hodgkin lymphoma membranes, duplicates, read-out: SSTR Kd): 8.01 nM
Kd ([6]; patient 5, rhabdomyosarcoma membranes, duplicates, read-out: SSTR Kd): 8.12 nM
Kd ([6]; patient 6, rhabdomyosarcoma membranes, duplicates, read-out: SSTR Kd): 4.31 nM
Kd ([6]; patient 7, hamartoma membranes, duplicates, read-out: SSTR Kd): 4.02 nM
Kd ([6]; range over seven receptor-positive pediatric tumor samples, read-out: dissociation constant (Kd), range): 4.02 to 8.12 nM
Compound: CC(C)[C@@H]1NC(=O)[C@H](CCCCN)NC(=O)[C@@H](Cc2c[nH]c3ccccc23)NC(=O)[C@H](Cc2ccc(O)cc2)NC(=O)[C@@H](NC(=O)[C@H](N)Cc2ccccc2)CSSC[C@@H](C(=O)N[C@@H](Cc2c[nH]c3ccccc23)C(N)=O)NC1=O [[125I]RC-160] (H-[dF]CY[dW]KVCW-NH2; disulfide 2-7)
affinity for SSTR-5 [3]: high affinity
Kd ([6]; patient 1, teratoma membranes, duplicates, read-out: SSTR Kd): 5.76 nM
affinity for SSTR-2 [4]: high affinity

inhibition/displacement of the binding of radioiodinated RC-160 [5]: none
Compound: insulin-like growth factor I: unrelated peptide used as specificity control

inhibition/displacement of the binding of radioiodinated RC-160 [5]: none
Compound: [Tyr4]bombesin

displacement of [125I]RC-160 binding [5]: did not displace
Compound: VIP: unrelated peptide used as specificity control (Figure 3)
